Values of other authors as cited in US20230338587A1, “METHOD OF TREATING PSMA-EXPRESSING CANCERS” (ADVANCED ACCELERATOR APPLICATIONS INTERNATIONAL SA, priority 2020, published 2023).

Q: Which results are given for “XOMA 089: fully human monoclonal antibody that specifically binds and neutralizes TGF-beta 1 and 2 ligands”?
A: cross-reactivity with rodent TGF-β (rodent TGF-β): cross-reacts; cross-reactivity with cynomolgus monkey TGF-β (cynomolgus monkey TGF-β): cross-reacts
